# Measured values from Sander's compilation of Henry's law constants (doi:10.1080/09593338709384529).
# Experiment: Henry solubility constant Hcp at 298.15 K (mol/(m3 Pa))
# Conditions: reference: Albanese et al. (1987)
row,SMILES,Henry solubility constant Hcp
1,"ClCCCCCl [1,4-dichlorobutane]",0.012
2,"Cl/C=C\CCl [cis-1,3-dichloropropene]",0.0042
3,"CC(Br)CBr (stereo not given) [1,2-dibromopropane]",0.0053
4,"ClCC(Cl)CCl [1,2,3-trichloropropane]",0.033
5,"ClCCCCl [1,3-dichloropropane]",0.0085
6,"C=C(Cl)CCl [2,3-dichloropropene]",0.0035
7,"Cl/C=C/CCl [trans-1,3-dichloropropene]",0.0056
8,"ClC/C=C/CCl [(E)-1,4-dichloro-2-butene]",0.017
9,"ClC/C=C\CCl [(Z)-1,4-dichloro-2-butene]",0.01
10,"CC(Cl)CCl (stereo not given) [1,2-dichloropropane]",0.0049
